Laboratory results taken from US11844776B2, “Composition for treatment and/or prevention of peripheral nerve disorder” (OSAKA CITY UNIVERSITY, priority 2016, dated 2023).

Assays:
[1] = tested on: sciatic nerve injury model mice; test: Functional analysis of sciatic nerves in sciatic nerve injury models; type: in vivo, mouse
Description: To investigate the effect of SNJ1945 on promoting peripheral nerve regeneration, mouse sciatic nerve injury models were prepared and histologically analyzed. The models were used as sciatic nerve injury model mice produced according to the method of Wall et al. (Wall, 1979). More specifically, model mice were produced in the following manner. Four-week-old female mice were subjected to general anesthesia with sevoflurane inhalation anesthesia (Mylan N.V.) and laid down in a prone position. The skin on the femur was incised. The muscle layer was peeled off carefully and quickly so as not to injure the sciatic nerve. The nerve was severed (completely injured) at mid-thigh at one point with an interval of 40 mm from the periphery. The muscle layer and the skin were then sutured and disinfected. The mice were used as complete nerve injury model mice. Administration of SNJ1945 was performed by mixing SNJ-1945 into a diet (CE-2, CLEA Japan, Inc.) and orally administering the mixture continuously to each mouse in an amount of 200 μg of SNJ1945/per gram of body weight/day. […]
To further investigate the peripheral nerve regeneration promotion effect of SNJ1945, motor function of sciatic nerve injury model mice was evaluated based on the sciatic function index (SFI) and print length factor (PLI) using Footprint (Bain et al., 1989).

[2] = tested on: dorsal root ganglion neurons; test: Effect of SNJ1945 on axon elongation in mouse dorsal root ganglion neurons; type: cell-based; details: 200 μM, 24 or 48 hours, vs 1% DMSO
Description: Dorsal root ganglions were aseptically extracted from postnatal mice (3, 10, or 15 days old) under a stereoscopic microscope, and tissue fragments were dispersed by gentle pipetting and then treated with 0.025% trypsin/0.0013% DNaseI (both being final concentrations) at 37° C. for 20 minutes. After centrifugation, a BME culture solution (Gibco) containing 10% equine blood serum was added, and washing was performed. After the enzyme reaction was stopped, a BME culture solution containing 0.0052% DNaseI/10% equine blood serum (both being final concentrations) was added, and pipetting was performed. […] After incubation for another 15 minutes at room temperature, the resulting aggregates were washed well and carefully embedded using glycerol for fluorescence microscope observation (Merck) so as not to break up the aggregates. […] Dorsal root ganglion neurons were also isolated from LIS1 hetero mice (3 days old) and analyzed in the same manner.
Dorsal root ganglion neurons were isolated from 3-day-old mice or 15-day-old mice, and the correlation between the presence or absence of SNJ1945 addition and axon length was analyzed. […]

LIS1 protein [3] = test: Expression amount of LIS1 protein in dorsal root ganglion neurons by western blotting; type: cell-based, mouse; details: 200 μM
Description: Dorsal root ganglion neurons were isolated from mice (3 days old or 15 days old) and the expression amount of LIS1 protein was analyzed in the order of time sequence from initiation of culture. Protein extraction was performed by adding 100 μl of a protein-dissolving liquid (30 mM Tris-HCl, pH 6.8, 1.5% sodium dodecyl sulfate (SDS), 0.3% bromophenol blue (BPB), 0.3% 2-mercapto-ethanol (2-ME), and 15% glycerol) per 5×10^4 dorsal root ganglion neurons and further performing ultrasonic treatment to achieve complete solubilization. After the heat treatment at 95° C. for 5 minutes, 1 μl of the obtained protein lysate was separated by 12.5% SDS-acrylamide electrophoresis and subjected to western blotting using anti-LIS1 antibody to detect LIS protein (the left-side figure in FIG. 2). The intensity of the detected band was analyzed (after correction with the intensity of the GAPDH band), and the expression ratio of LIS protein was determined (right-side figure in FIG. 2). […]
After the incubation, the procedures were performed in the same manner as described above in the “Analysis of Expression Amount of LIS1 Protein in Dorsal Root Ganglion Neurons” section to detect LIS protein by western blotting (the left-side figure in FIG. 5). Further, the intensity of the detected band was analyzed to determine the expression ratio of the LIS protein (the right-side figure in FIG. 5).

LIS1 protein [4] = details: disclosed in WO2012/074120; based on calpain inhibitory activity; cited from earlier work
[5] = tested on: sciatic nerve injury model mice; test: Histological analysis of sciatic nerves in sciatic nerve injury models; type: in vivo, mouse
Description: To investigate the effect of SNJ1945 on promoting peripheral nerve regeneration, mouse sciatic nerve injury models were prepared and histologically analyzed. The models were used as sciatic nerve injury model mice produced according to the method of Wall et al. (Wall, 1979). More specifically, model mice were produced in the following manner. Four-week-old female mice were subjected to general anesthesia with sevoflurane inhalation anesthesia (Mylan N.V.) and laid down in a prone position. The skin on the femur was incised. The muscle layer was peeled off carefully and quickly so as not to injure the sciatic nerve. The nerve was severed (completely injured) at mid-thigh at one point with an interval of 40 mm from the periphery. The muscle layer and the skin were then sutured and disinfected. The mice were used as complete nerve injury model mice. Administration of SNJ1945 was performed by mixing SNJ-1945 into a diet (CE-2, CLEA Japan, Inc.) and orally administering the mixture continuously to each mouse in an amount of 200 μg of SNJ1945/per gram of body weight/day. Mice that were subjected to the same complete nerve injury and maintained on a diet not containing SNJ1945 (CE-2, CLEA Japan, Inc.) were used as a control group.
For histological analysis, after the mice were sacrificed by cervical dislocation, sciatic nerves were removed and fixed in 4% paraformaldehyde for 24 hours. After the paraformaldehyde was replaced with PBS, the sciatic nerves were embedded in paraffin. The tissue block was cut into 5-μm-thick sections and each tissue section was adhered onto a glass slide. For hematoxylin and eosin staining, each tissue section was 1) deparaffinized, 2) washed with water, 3) stained with Mayer's or Carrazzi's hematoxylin, 4) lightly washed with running water, 5) allowed to develop color, 6) stained with an eosin solution for 1 minute, and 7) subjected to dehydration, clearing, and embedding; and morphologically observed under an optical microscope.
Samples for observation under an electron microscope were prepared in the following manner. Sciatic nerves were removed in the same manner as above and then placed in a fixative (2.5% glutaraldehyde). Ten minutes after being placed in the fixative, the sciatic nerves were removed and placed in several drops of the fixative that had been dropped on a thick plastic sheet beforehand, and cut into thin sections. Post-fixation was performed using an aqueous osmium tetroxide solution. Next, free water contained in the tissue was replaced with ethyl alcohol. In order to make ultrathin sections, the tissue was embedded in an epoxy resin, and tissue sections were produced with an ultramicrotome. Observation was performed using a transmission electron microscope (Hitachi Ltd.: H-7500).

[6] = complete nerve injury model, oral in diet 200 μg/g body weight/day, 1 week after administration, vs control group

COCCOCCOC(=O)N[C@@H](CC(C)C)C(=O)N[C@@H](Cc1ccccc1)C(=O)C(=O)NC1CC1 [Compound 17, ((1S)-1-((((1S)-1-Benzyl-2,3-dioxo-3-(cyclopropylamino)propyl)amino)carbonyl)-3-methylbutyl)carbamic acid 5-methoxy-3-oxapentyl ester]
condition of the paw ([1]; complete injury model, one month after administering, vs control group mouse): recovered to the extent that the mouse could grasp the cage | recovery of complete nerve injury models (motor function) ([1]; continuous administration): further promoted recovery | axon elongation (axon length) ([2]; neurons from 3-day-old mice): axon elongation promotion effect | axon elongation (axon length) ([2]; neurons from 15-day-old mice): significant axon elongation promotion effect | expression amount of LIS1 protein (LIS1 protein [3]; neurons from 3-day-old mice): not able to significantly increase the expression amount | expression amount of LIS1 protein (LIS1 protein [3]; neurons from 15-day-old mice): significantly increased the expression amount of LIS1 | effect of amplifying LIS1 protein (LIS1 protein [4]): has an effect of amplifying LIS1 protein | myelin regeneration in sciatic nerves after nerve cell degeneration ([5]; administration started 1 week after severance, analyzed 1 month after severance): significantly high myelin regeneration | recovery of myelin (electron microscope) [5, 6]: recovery of myelin | recovery of sciatic nerves (hematoxylin and eosin staining) [5, 6]: significant recovery of sciatic nerves | number of myelin whose recovery was recognized (regeneration of myelin in sciatic nerves) ([5]; complete nerve injury model, oral in diet, FIG. 24, vs control group): significantly high regeneration of myelin
